These results are taken from patent US20250320190A1, “Novel Inhibitors of Leucine Carboxyl Methyltransferase-1 (LCMT-1) and Methods of Use Thereof” (Temple University-Of The Commonwealth System of Higher …, priority 2024, published 2025).

Data set [1] concerns MCF7 cells. Kind of data set: Cell cycle analysis (BrdU flow cytometry). Format: cell-based, human. The settings on record: 20 μM, 24 hours. As to the method:
(§1) MCF7, MDA-MB-231 and Rosi cells were seeded in 6-well tissue culture plates (Celltreat) at a density of 5×10^5 cells per well. After 24 hours, the DMEM was changed to media containing 20 μM LB-100 or Compound 2. Control cells were given fresh media. After 24 hours, cells were labeled with 50 μM bromodeoxyuridine (BrdU, BioGems, Westlake Village, California, catalog #5911439). Cells were lifted with 0.25% trypsin, 2.21 mM ethylenediaminetetraacetic acid (Corning catalog #25-053-CI) after 4 hours and fixed with 70% ethanol overnight at 4° C. Cells were pelleted and cellular DNA was denatured with HCl. After neutralization with 1 M Tris, pH 8.5, cells were labeled with FITC-anti-BrdU (Biolegend, San Diego, California, catalog #364104, 5 μL/100 μL cell suspension) and 7-aminoactinomycin-D (7-AAD, Biolegend, catalog #420404, 1 μL/100 μL cell suspension). Cells were analyzed with a Becton-Dickinson FACSymphony™ flow cytometer. Cell cycle analyses were performed three times.

The subject of data set [2] is Rosi cells. The experiment in a line: Cell cycle analysis (BrdU flow cytometry). The format is cell-based, human. To be noted: 20 μM, 24 hours. The method, then: as §1
In general terms: Flow cytometry measures light scatter and fluorescence of single cells or particles in a stream.

Data set [3] relates to MDA-MB-231 cells. The experiment in a line: Cell cycle analysis (BrdU flow cytometry). The format is cell-based, human. To be noted: 20 μM, 24 hours. As to the method:
as §1

For data set [4], the system named is MCF7 cells. The experiment in a line: Cytotoxicity assay (calcein-AM). The format is cell-based, human. The settings on record: MCF7, 48 hours. The method, then:
(§2) HS-5, HEK-293, MCF7, MDA-MB-231 and Rosi cells were seeded in 96-well optical bottom tissue culture plates (Corning, New York) at a density of 2.5×10^3 cells/well. After 24 hours, the media were changed to media containing LB-100 (Cayman Chemical Company, Ann Arbor, Michigan) or Compound 2 at various concentrations (50-0.31 μM). Control cells were given fresh media. After 48 hours the media were aspirated and plates were washed with warmed Dulbecco's phosphate-buffered saline (DPBS) with calcium and magnesium (Sigma-Aldrich, catalog #D1283). Cells were stained with 3 μM calcein-AM (AAT Bioquest, Pleasanton, California, catalog #22002) in DPBS for 30 minutes in the dark at 37° C. Plates were immediately read with a Biotek fluorescent plate reader (excitation 485 nm, emission 520 nm). The cytotoxicity assays were performed at least three times, each time with six replicates per condition.

The test system of data set [5] is MDA-MB-231 cells. Kind of data set: Cytotoxicity assay (calcein-AM). The format is cell-based, human. The settings on record: MDA-MB-231, 48 hours. As to the method:
as §2

For data set [6], the system named is HS-5 cells. Kind of data set: Cytotoxicity assay (calcein-AM). Format: cell-based. The settings on record: HS-5, 48 hours. The method, then: as §2
Data set [7] has as its system HEK-293 cells. The experiment in a line: Cytotoxicity assay (calcein-AM). The settings on record: Homo sapiens, HEK293; HEK-293; 48 hours; read-out: Log [μM] EC50 (converted). Format: cell-based. As to the method:
as §2

The subject of data set [8] is MDA-MB-231 cells transfected with the LCMT-1 expression vector. The experiment in a line: Cytotoxicity assay in LCMT-1-transfected cells. The settings on record: MDA-MB-231 transfected with LCMT-1 vector. Format: cell-based, human. As to the method: MDA-MB-231 cells were also transfected with the LCMT-1 expression vector using Lipofectamine 3000 transfection reagent (Thermo Fisher Scientific, Waltham, Massachusetts) according to the manufacturer's transfection protocol for MDA-MB-231 cells. After 5 hours the medium was changed. The cells were split 1:100 the following day, and 2 days after transfection, selection with G418 sulfate (Mediatech, Herndon, Virginia) at […] for 2 weeks commenced to develop stably transfected cells. After the selection process, cells were used in Compound 2 cytotoxicity assays as previously described.

Data set [9] has as its system SCC-25 cells. Kind of data set: Annexin V assay with and without irradiation. The format is cell-based, human. The settings on record: alone or in combination with irradiation. The method, then: (§3) Head and neck cancer (HNC) cell lines were used for further analyses. Cells were seeded in 60 mm dishes at a density of 8×10^5 cells/dish. After 24 hours, cells were treated with LCMT-li, radiotherapy or both. Control cells were given fresh media. Because radiosensitization was seen between 2.5-10 μM in SCC-15, SCC-25, UM-SCC-49, and UM-SCC-69, irradiated cells were treated with or without 10 μM LCMT-li as described. Twenty-four hours after treatment, cells were lifted with Accutase and washed twice with PBS (pH 7.4) with 10% FBS. Cells were resuspended in annexin V binding buffer (10 mM HEPES (pH 7.4), 140 mM NaCl and 2.5 mM CaCl2)) and labeled with FITC-anti-Annexin V and 7-AAD (Biolegend, San Diego, California, FITC Annexin V Apoptosis Detection Kit with 7-AAD, catalog #640922). Cell surface annexin V expression was assessed immediately with flow cytometry. Annexin V assays were performed with 12 replicates, 104 cells/replicate.

The subject of data set [10] is UM-SCC-12 cells. The experiment in a line: Annexin V assay with and without irradiation. Format: cell-based, human. As to the method: as §3
In data set [11] the test system is SCC-15 cells. The experiment in a line: Annexin V assay with and without irradiation. Format: cell-based, human. The method, then: as §3
Data set [12] relates to UM-SCC-14a cells. The experiment in a line: Annexin V assay with and without irradiation. The format is cell-based, human. To be noted: LCMT-li combined with irradiation. The method, then:
as §3

Data set [13] deals with UM-SCC-69 cells. The experiment in a line: Annexin V assay with and without irradiation. Format: cell-based, human. The method, then:
as §3

The subject of data set [14] is UM-SCC-49 cells. Kind of data set: Annexin V assay with and without irradiation. The format is cell-based, human. To be noted: LCMT-li, irradiation or both. The method, then: as §3
[15] abbreviates: Homo sapiens, read-out: Log [μM] EC50 (converted).
The mark [16] stands for this setting: LCMT-li monotherapy vs control cells.
Where [17] appears, read: 10 μM LCMT-li with irradiation vs irradiation alone.

By EC50 is commonly meant the concentration giving half of the maximal effect. Take `COC(=O)c1c(NC(=O)c2ccccc2C)sc(C(=O)Nc2cccc(C)c2)c1C` [Compound 2, methyl 4-methyl-2-[(2-methylbenzoyl)amino]-5-[[(3-methylphenyl)amino]carbonyl]-3-thiophenecarboxylate]: the cell cycle effect result in data set [1] was “did not change cell cycle dynamics”; in data set [2], “induced G0/G1 arrest”; in data set [3], “did not change cell cycle dynamics”. Further, the EC50 in [4] (setting [15]) was 2.24 µM; in data set [5] (setting [15]) it was 3.89 µM; in data set [6] (HS5, read-out: Log [μM] EC50 (converted)) it was 8.71 µM; in data set [7] it was 4.68 µM. For the same compound, the inhibition of survival entry in [4] (concentrations tested 50-0.31 μM) was “Neither LB-100 nor Compound 2 significantly inhibited survival”. In [5], the “concentration at which survival was significantly inhibited” value was 25 µM. The “concentration at which cytotoxicity was significant” value in [6] was 20 µM. For the same compound, the “effect of LCMT-1 overexpression on Compound 2-mediated cell death” value in data set [8] was “induced resistance to Compound 2-mediated cell death”. Further, in [9], the apoptosis or ferroptosis entry is given as “did not increase apoptosis or ferroptosis”. The “apoptosis (annexin V)” value is reported as “increased apoptosis” in data set [10] (setting [16]); “did not increase apoptosis in the presence of irradiation as compared to irradiation alone” in [10] (with irradiation vs irradiation alone); “increased apoptosis in comparison to irradiation alone” in [11] (setting [17]); “increased apoptosis” in data set [11] (LCMT-li monotherapy vs control cells, 24 hours); “increased apoptosis in comparison to irradiation alone” in [13] (setting [17]); “increased apoptosis” in data set [13] (setting [16]). The programmed cell death result in data set [12] was “did not increase programmed cell death”. The “apoptosis, necroptosis and ferroptosis” value in data set [14] was “did not differ between the experimental conditions”.
